Data taken from US20260137638A1, “STAT3 INHIBITORS FOR USE IN THE TREATMENT OF NON-VIRAL LIVER CANCER” (Tyardi Operating Company, Inc., priority 2022, published 2026).

System: HCC
Test: Safety and efficacy study of TTI-101 in advanced solid tumors: best response (RECIST v1.1) in HCC participants
Assay type: in vivo, human
Settings: for time partial response was sustained / best response: reduction in the sum of overall RECIST targets: non-viral HCC
Procedure: This study evaluates the safety and efficacy of TTI-101 in advanced solid tumors. TTI-101 was administered twice daily at doses of 1.6 (Cohort 1; n=4), 3.2 (Cohort 2; n=3), or 6.4 mg/kg/dose (Cohort 3; n=8) of a Labrasol/PEG400 formulation (60:40% v/v) or 6.4 mg/kg/dose (Cohort 3a: n=37) or 12.8 mg/kg/dose (Cohort 4; n=10) of oral capsule formulation (composition comprising TTI-101 at a concentration of 92 mg/g in a mixture of Kolliphor RH 40 (PEG-40 hydrogenated castor oil). PEG600. Polysorbate 20, Labrasol, and citric acid). TTI-101 was administered twice daily at 6.4 mg/kg/dose (Cohort 5; n=7) of oral tablet formulation (comprising 200 mg of TTI-101).
These patients had failed all prior lines of therapy (median number of prior therapies=3). Furthermore, a disease control rate (defined as the proportion of patients in whom the best overall response is determined as complete response, partial response or stable disease according to RECIST v1.1) of 60% has been observed in the 15 heavily pre-treated HCC patients (9/15), which is similar to that reported with sorafenib in first-line therapy.

[1] = number of participants, 7 non-viral HCC participants
[2] = number of participants, 8 viral HCC participants
[3] = number of participants, all 15 evaluable HCC participants

Compound: COc1ccc(S(=O)(=O)Nc2cc(-c3c(O)ccc4ccccc34)c(O)c3ccccc23)cc1 [TTI-101, N-(1′,2-dihydroxy-1,2′-binaphthalen-4′-yl)-4-methoxybenzenesulfonamide]
- Disease Control Rate, HCC (non-viral) (7 non-viral HCC participants): 57%
- Disease Control Rate, HCC (viral) (8 viral HCC participants): 63%
- time partial response was sustained (Participant A, 6.4 mg/kg/day): 11 months
- best response: reduction in the sum of overall RECIST targets (Participant A, 6.4 mg/kg/day, failed sorafenib, pembrolizumab, nivolumab, nivolumab+bevacizumab): 42%
- time partial response was sustained (Participant B, 12.8 mg/kg/day): 14 months
- best response: reduction in the sum of overall RECIST targets (Participant B, 12.8 mg/kg/day, failed lenvatinib and nivolumab): 66%
- best response: reduction in the sum of overall RECIST targets (Participant C, 12.8 mg/kg/day, failed atezolizumab+bevacizumab): 45%
- Disease Control Rate, HCC (complete response, partial response or stable disease by RECIST v1.1, 15 heavily pre-treated HCC patients (9/15)): 60%
- Progressive Disease, HCC (non-viral) [1]: 3
- Stable Disease, HCC (non-viral) [1]: 1
- Partial Response, HCC (non-viral) (number of participants, 7 non-viral HCC participants, TTI-101 monotherapy): 3
- Progressive Disease, HCC (viral) [2]: 3
- Stable Disease, HCC (viral) [2]: 5
- Partial Response, HCC (viral) (number of participants, 8 viral HCC participants, TTI-101 monotherapy): 0
- Progressive Disease, HCC [3]: 6
- Stable Disease, HCC [3]: 6
- Partial Response, HCC (number of participants, all 15 evaluable HCC participants, TTI-101 monotherapy, after two 28-day cycles, radiologically confirmed): 3
